# Active and inactive are the calls of the source. No cut-off for these calls is given here.
# Key:
# [1] = Aqueous solubility of compound in buffer of pH 6.8 after 24 hrs by UV-based high throughput assay; assay type: physicochemical
# [2] = biological target: T1, Protein-serine O-palmitoleoyltransferase porcupine (Mus musculus, UniProt Q9JJJ7); experiment: Inhibition of PORCN in […] overexpressing Wnt3A co-cultured with TM3 cells transfected with Wnt-luciferase gene after 24 hrs by luminescence assay; assay type: cell-based
# T1 sequence (Q9JJJ7 whole entry): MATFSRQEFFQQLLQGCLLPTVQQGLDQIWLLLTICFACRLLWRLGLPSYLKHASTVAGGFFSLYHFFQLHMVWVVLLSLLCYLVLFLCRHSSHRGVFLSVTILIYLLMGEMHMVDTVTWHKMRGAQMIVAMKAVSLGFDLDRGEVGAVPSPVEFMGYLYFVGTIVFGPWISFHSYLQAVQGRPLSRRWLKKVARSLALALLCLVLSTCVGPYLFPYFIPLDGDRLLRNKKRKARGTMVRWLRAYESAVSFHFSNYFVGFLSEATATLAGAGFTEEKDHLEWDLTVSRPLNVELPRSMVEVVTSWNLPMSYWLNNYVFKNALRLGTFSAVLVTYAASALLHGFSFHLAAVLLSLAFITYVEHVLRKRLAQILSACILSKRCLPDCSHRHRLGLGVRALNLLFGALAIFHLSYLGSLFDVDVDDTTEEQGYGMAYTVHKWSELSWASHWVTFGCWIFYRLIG
# Cytochrome P450 3A4 = Cytochrome P450 3A4 (Homo sapiens, UniProt P08684); experiment: Inhibition of CYP3A4 (unknown origin); assay type: ADME
# [3] = Dose normalized Cmax in Balb/c mouse at 5 mg/kg via oral gavage after 24 hrs by LC/MS/MS analysis; assay type: ADME, organism-based; conditions: in vivo
# [4] = Dose normalized AUC in Balb/c mouse at 5 mg/kg via oral gavage after 24 hrs by LC/MS/MS analysis; assay type: ADME, organism-based; conditions: in vivo
# [5] = Clearance in Balb/c mouse at 2 mg/kg, iv after 24 hrs by LC/MS/MS analysis; assay type: ADME, organism-based; conditions: in vivo
# Cytochrome P450 = experiment: Inhibition of CYP450 (unknown origin) up to 10 uM; assay type: ADME, protein assay; conditions: human
# [6] = biological target: T2, Protein-serine O-palmitoleoyltransferase porcupine (Homo sapiens, UniProt Q9H237); experiment: Displacement of [3H]-GNF-1331 from human PORCN after 3 hrs by scintillation counting analysis
# T2 sequence (Q9H237 whole entry): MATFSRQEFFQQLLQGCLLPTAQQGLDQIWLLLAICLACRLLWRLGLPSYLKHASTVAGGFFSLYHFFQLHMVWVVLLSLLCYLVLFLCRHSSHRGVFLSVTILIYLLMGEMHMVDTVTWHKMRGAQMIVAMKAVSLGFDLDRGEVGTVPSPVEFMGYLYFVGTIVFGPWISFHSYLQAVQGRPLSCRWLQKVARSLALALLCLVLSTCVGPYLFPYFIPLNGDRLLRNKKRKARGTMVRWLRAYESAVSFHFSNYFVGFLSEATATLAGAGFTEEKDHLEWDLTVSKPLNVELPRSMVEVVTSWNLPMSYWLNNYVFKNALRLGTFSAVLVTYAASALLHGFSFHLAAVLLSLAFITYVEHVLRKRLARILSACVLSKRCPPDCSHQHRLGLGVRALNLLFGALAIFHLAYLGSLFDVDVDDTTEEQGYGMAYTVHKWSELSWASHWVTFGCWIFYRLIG
# [7] = Oral bioavailability in Balb/c mouse at 5 mg/kg via gavage by LC/MS/MS analysis; assay type: ADME, organism-based; conditions: in vivo
# [8] = Terminal half life in dog by LC/MS/MS analysis; assay type: ADME, Canis lupus familiaris; conditions: in vivo, read-out: beta t1/2 (converted)
# Mus musculus [9] = experiment: Antitumor activity in nude mouse MMTV-Wnt1 model assessed as tumor growth inhibition at 3 mg/kg, po qd administered for 2 weeks relative to control; assay type: functional
# [10] = Clearance in rat by LC/MS/MS analysis; assay type: ADME; conditions: in vivo
# Cytochrome P450 2D6 = Cytochrome P450 2D6 (Homo sapiens, UniProt P10635); experiment: Inhibition of CYP2D6 (unknown origin); assay type: ADME
# Mus musculus [11] = experiment: Antitumor activity in nude mouse MMTV-Wnt1 model assessed as tumor growth inhibition at 0.3 mg/kg, po qd administered for 2 weeks relative to control; assay type: functional
# [12] = Terminal half life in Balb/c mouse at 2 mg/kg, iv or 5 mg/kg via oral gavage by LC/MS/MS analysis; assay type: ADME, organism-based; conditions: in vivo, read-out: beta t1/2 (converted)
# Mus musculus [13] = experiment: Antitumor activity in nude mouse MMTV-Wnt1 model assessed as tumor growth inhibition at 1 mg/kg, po qd administered for 2 weeks relative to control; assay type: functional
# Cytochrome P450 2C9 = Cytochrome P450 2C9 (Homo sapiens, UniProt P11712); experiment: Inhibition of CYP2C9 (unknown origin); assay type: ADME
# [14] = Oral bioavailability in dog by LC/MS/MS analysis; assay type: ADME, organism-based, Canis lupus familiaris; conditions: in vivo
# [15] = Clearance in dog by LC/MS/MS analysis; assay type: ADME, Canis lupus familiaris; conditions: in vivo
# [16] = Volume of distribution at steady state in dog by LC/MS/MS analysis; assay type: ADME, Canis lupus familiaris; conditions: in vivo, read-out: Vdss
# [17] = Protein binding in mouse plasma by rapid equilibrium dialysis; assay type: ADME, cell-free; conditions: read-out: PPB (converted)
# Mus musculus [18] = experiment: Inhibition of Axin2 mRNA level in nude mouse MMTV-Wnt1 model at 3 mg/kg administered as oral gavage measured at 5 hrs by RT-PCR analysis; assay type: functional
# [19] = Volume of distribution at steady state in Balb/c mouse at 2 mg/kg, iv after 24 hrs by LC/MS/MS analysis; assay type: ADME, organism-based; conditions: in vivo, read-out: Vdss
# [20] = Efflux ratio of permeability in human Caco2 cells; assay type: ADME, cell-based; conditions: Caco-2
# [21] = Toxicity in nude mouse MMTV-Wnt1 model assessed as body weight loss at 0.3 to 3 mg/kg, po qd administered for 2 weeks measured during compound dosing; assay type: organism-based; conditions: in vivo, 336 h
# [22] = Protein binding in monkey plasma by rapid equilibrium dialysis; assay type: ADME, cell-free, Macaca mulatta; conditions: rhesus monkey, read-out: PPB (converted)
# [23] = Apparent permeability across apical to basolateral side of human Caco2 cells; assay type: ADME, cell-based; conditions: Caco-2
# [24] = Protein binding in dog plasma by rapid equilibrium dialysis; assay type: ADME, cell-free, Canis lupus familiaris; conditions: read-out: PPB
# [25] = Oral bioavailability in rat by LC/MS/MS analysis; assay type: ADME, organism-based; conditions: in vivo
# Mus musculus [26] = experiment: Inhibition of Axin2 mRNA level in nude mouse MMTV-Wnt1 model at 3 mg/kg administered as oral gavage measured after 24 hrs by RT-PCR analysis; assay type: functional, organism-based
# [27] = Protein binding in rat plasma by rapid equilibrium dialysis; assay type: ADME, cell-free; conditions: read-out: PPB (converted)
# [28] = Protein binding in human plasma by rapid equilibrium dialysis; assay type: ADME, cell-free; conditions: read-out: PPB (converted)
# [29] = Volume of distribution at steady state in rat by LC/MS/MS analysis; assay type: ADME; conditions: in vivo, read-out: Vdss
# [30] = Terminal half life in rat by LC/MS/MS analysis; assay type: ADME; conditions: in vivo, read-out: beta t1/2 (converted)
# Cytochrome P450 3A4, sequence (P08684 whole entry): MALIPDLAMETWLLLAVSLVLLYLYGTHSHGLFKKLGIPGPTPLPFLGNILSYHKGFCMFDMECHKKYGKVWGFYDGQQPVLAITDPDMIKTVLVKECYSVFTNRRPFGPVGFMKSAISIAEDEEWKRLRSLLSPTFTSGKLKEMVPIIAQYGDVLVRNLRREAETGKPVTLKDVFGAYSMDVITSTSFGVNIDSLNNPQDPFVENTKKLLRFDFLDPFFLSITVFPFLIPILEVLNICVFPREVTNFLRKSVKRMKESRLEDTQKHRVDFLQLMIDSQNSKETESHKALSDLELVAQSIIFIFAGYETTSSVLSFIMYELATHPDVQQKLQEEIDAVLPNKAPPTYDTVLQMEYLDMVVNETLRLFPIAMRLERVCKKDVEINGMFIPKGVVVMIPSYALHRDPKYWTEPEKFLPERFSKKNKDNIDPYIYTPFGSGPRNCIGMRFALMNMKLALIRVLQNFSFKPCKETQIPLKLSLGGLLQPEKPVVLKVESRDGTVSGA
# Cytochrome P450 2C9, sequence (P11712 whole entry): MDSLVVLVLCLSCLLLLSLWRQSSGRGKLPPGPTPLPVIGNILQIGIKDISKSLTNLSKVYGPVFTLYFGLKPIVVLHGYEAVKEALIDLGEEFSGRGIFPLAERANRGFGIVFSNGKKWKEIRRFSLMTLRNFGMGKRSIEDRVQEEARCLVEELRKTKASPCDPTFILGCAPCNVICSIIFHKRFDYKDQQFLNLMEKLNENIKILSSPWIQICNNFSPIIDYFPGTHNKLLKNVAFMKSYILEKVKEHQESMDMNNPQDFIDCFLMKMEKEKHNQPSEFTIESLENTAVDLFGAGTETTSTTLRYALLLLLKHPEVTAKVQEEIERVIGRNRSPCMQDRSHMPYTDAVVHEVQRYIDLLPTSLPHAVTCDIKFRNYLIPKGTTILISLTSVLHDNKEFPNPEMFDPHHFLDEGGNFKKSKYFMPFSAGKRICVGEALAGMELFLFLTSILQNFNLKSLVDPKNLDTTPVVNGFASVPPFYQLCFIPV
# Cytochrome P450 2D6, sequence (P10635 whole entry): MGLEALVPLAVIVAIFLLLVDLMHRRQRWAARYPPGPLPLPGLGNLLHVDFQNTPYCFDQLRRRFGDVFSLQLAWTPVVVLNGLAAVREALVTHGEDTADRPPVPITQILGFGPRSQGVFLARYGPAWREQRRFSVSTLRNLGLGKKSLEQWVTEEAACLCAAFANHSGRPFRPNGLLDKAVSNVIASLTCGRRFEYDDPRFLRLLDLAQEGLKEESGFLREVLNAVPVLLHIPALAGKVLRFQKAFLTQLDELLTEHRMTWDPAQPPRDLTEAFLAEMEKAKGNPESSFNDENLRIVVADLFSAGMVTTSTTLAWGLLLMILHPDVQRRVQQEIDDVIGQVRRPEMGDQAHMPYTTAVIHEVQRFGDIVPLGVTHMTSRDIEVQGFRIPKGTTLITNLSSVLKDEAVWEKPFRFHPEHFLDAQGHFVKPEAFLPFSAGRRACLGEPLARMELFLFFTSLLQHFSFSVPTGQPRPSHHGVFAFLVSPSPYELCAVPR
structure (smiles),measurement,setting,value
Cc1cc(-c2ccc(CC(=O)Nc3ccc(-c4ccccc4)cn3)cc2)ccn1,solubility at 24 h,[1],< 2 µM
same,IC50,[2],0.7 nM
O=C(Cc1ccc(-c2ccncc2)cc1)Nc1nc(-c2ccccc2)cs1,IC50,[2],5.5 nM
COc1ccc2nc(C(=O)NCc3ccc(-c4ccncc4)cc3)sc2c1,IC50,[2],380 nM
COC(=O)N1CCN(c2ccc(NC(=O)Cc3cnc(-c4ccnc(C)c4)c(C)c3)nc2)CC1,solubility at 24 h,[1],> 175 µM
Cc1cc(-c2ccc(CC(=O)Nc3ccc(-c4ccccc4)cn3)cn2)ccn1,solubility at 24 h,[1],6 µM
same,IC50,[2],0.2 nM
COc1ccc2nc(NC(=O)Cc3ccc(-c4ccncc4)cc3)sc2c1,IC50,Cytochrome P450 3A4,800 nM
same,Cmax/dose,[3],4.1 µM
same,AUC/dose,[4],26 µM·h
same,clearance,[5],2.49 mL/min/kg
Cc1cc(-c2ncc(CC(=O)Nc3ccc(-c4cnccn4)cn3)cc2C)ccn1 [WNT-974],solubility at 24 h,[1],210 µM
same,IC50,[2],0.4 nM
COc1ccc2nc(NC(=O)Cc3ccc(-c4ccnc(C)c4)cc3)sc2c1,inhibition (INH),Cytochrome P450,Not Active
Cc1cc(-c2ccc(CC(=O)Nc3ccc(-c4ccccn4)cn3)cn2)ccn1,solubility at 24 h,[1],17 µM
Cc1cc(CC(=O)Nc2ccc(-c3cnccn3)cn2)cnc1-c1ccnc(F)c1,solubility at 24 h,[1],105 µM
CCCn1c(SCC(=O)Nc2nc3ccc(OC)cc3s2)nnc1-c1ccncc1,Cmax/dose,[3],0.014 µM
same,AUC/dose,[4],0.03 µM·h
same,IC50,[6],8 nM
same,IC50,[2],12 nM
CC(=O)N1CCN(c2ccc(NC(=O)Cc3cnc(-c4ccnc(C)c4)c(C)c3)nc2)CC1,solubility at 24 h,[1],> 175 µM
same,IC50,[2],0.7 nM
Cc1cc(CC(=O)Nc2ccc(-c3cnccn3)cn2)cnc1-c1ccnc(CO)c1,IC50,[2],26 nM
CC(=O)N1CCN(c2ccc(NC(=O)Cc3cnc(-c4ccnc(F)c4)c(C)c3)nc2)CC1,bioavailability,[7],96%
same,IC50,Cytochrome P450 3A4,> 10000 nM
same,half-life,[8],532 min
same,T/C,Mus musculus [9],-84%
same,clearance,[10],5.35 mL/min/kg
same,IC50,Cytochrome P450 2D6,> 10 µM
same,T/C,Mus musculus [11],15%
same,half-life,[12],146 min
same,T/C,Mus musculus [13],-74%
same,IC50,Cytochrome P450 2C9,> 10 µM
same,bioavailability,[14],72%
same,clearance,[15],0.67 mL/min/kg
same,Vd,[16],0.25 L/kg
same,fraction unbound,[17],0.12
same,inhibition in vivo at 3 mg/kg,Mus musculus [18],90%
same,Vd,[19],0.57 L/kg
same,solubility at 24 h,[1],350 µM
same,efflux ratio,[20],3.2
same,Activity,[21],Non-Toxic
same,fraction unbound,[22],0.288
same,Papp A→B,[23],7.5 ×10⁻⁶ cm/s
same,fraction unbound,[24],0.091
same,bioavailability,[25],84%
same,inhibition,Mus musculus [26],inactive
same,fraction unbound,[27],0.169
same,fraction unbound,[28],0.05
same,IC50,[2],0.8 nM
same,Vd,[29],0.7 L/kg
same,half-life,[30],166 min
same,clearance,[5],5.33 mL/min/kg
Cc1cc(-c2ccc(CC(=O)Nc3ccc(-c4cnccn4)cn3)cn2)ccn1,solubility at 24 h,[1],16 µM
Cc1cc(CC(=O)Nc2ccc(N3CCNCC3)cn2)cnc1-c1ccnc(F)c1,IC50,[2],24 nM
Cc1cc(-c2ccc(NC(=O)Nc3ccc(-c4ccccc4)cc3)cc2)ccn1,IC50,[2],> 10000 nM
Cc1cc(-c2ccc(OC(=O)Nc3ccc(-c4ccccc4)cc3)cc2)ccn1,IC50,[2],> 10000 nM
Cc1cc(-c2ncc(CC(=O)Nc3ccc(-c4ccccn4)cn3)cc2C)ccn1,solubility at 24 h,[1],32 µM
same,IC50,[2],0.4 nM

# — ChEMBL document CHEMBL4425166, “Discovery of Pyridinyl Acetamide Derivatives as Potent, Selective, and Orally Bioavailable Porcupine Inhibitors” (ACS Med Chem Lett, 2016)
